In ChEMBL document CHEMBL1201862, “PubChem BioAssay data set” (2004):
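48-hour exposure; five concentrations; linearly interpolated endpoints. GI50 is the concentration that inhibits growth by half.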 The source made the active and inactive calls. Rule as the data show it: active = GI50 up to about 1.1 µM and inactive = higher.

What was measured:
Assay in all cases: DTP human tumour cell line panel, 48 h
[1] = system: SNB-19
[2] = system: NCI-H522
[3] = system: CAKI-1
[4] = system: T47D
[5] = system: A549
[6] = system: 786-0
[7] = system: RXF 393
[8] = system: SW-620
[9] = system: HT-29
[10] = system: SK-MEL-2
[11] = system: SF-295
[12] = system: HOP-92
[13] = system: NCI-H226
[14] = system: PC-3
[15] = system: UACC-62
[16] = system: ACHN
[17] = system: MDA-MB-231
[18] = system: HL-60
[19] = system: Malme-3M
[20] = system: MDA-N

Which results are given for `Cc1ccc(S(=O)(=O)N/N=C/C(=C/c2ccc(Cl)cc2)CC(/C=N/NS(=O)(=O)c2ccc(C)cc2)=C\c2ccc(Cl)cc2)cc1`?
GI50 [1]: 8.77 µM (inactive); GI50 [2]: 4.03 µM (inactive); GI50 [3]: 5.37 µM (inactive); GI50 [4]: 4.78 µM (inactive); GI50 [5]: 17.1 µM (inactive); GI50 [6]: 2.19 µM (inactive); GI50 [7]: 3.56 µM (inactive); GI50 [8]: 4.47 µM (inactive); GI50 [9]: 5.51 µM (inactive); GI50 [10]: 7.76 µM (inactive); GI50 [11]: 14 µM (inactive); GI50 [12]: 2.23 µM (inactive); GI50 [13]: 15 µM (inactive); GI50 [14]: 4.02 µM (inactive); GI50 [15]: 5.08 µM (inactive); GI50 [16]: 6.04 µM (inactive); GI50 [17]: 10.2 µM (inactive); GI50 [18]: 3.59 µM (inactive); GI50 [19]: 8.2 µM (inactive); GI50 [20]: 4.45 µM (inactive)

Which GI50 [1] does the source give for `COC(=O)C(Cc1c[nH]c2ccccc12)NC1=Nc2ccncc2S(=O)(=O)N1c1ccccc1` (stereo not given) here?
Its GI50 is > 100 µM (inactive).

What about the GI50 [2] of the same compound?
The GI50 was 28 µM (inactive).

What about the GI50 [3] of the same compound?
Its GI50 is 39.4 µM (inactive).

And the GI50 [4]?
Its GI50 is 20.5 µM (inactive).

And the GI50 [5]?
Its GI50 is 59 µM (inactive).

What about the GI50 [6] of the same compound?
The GI50 was 33.3 µM (inactive).

What about the GI50 [7] of the same compound?
Its GI50 is 19.9 µM (inactive).

And the GI50 [8]?
Its GI50 is 28.1 µM (inactive).

And the GI50 [9]?
Its GI50 is 18.9 µM (inactive).

And the GI50 [10]?
Its GI50 is 38.1 µM (inactive).

What about the GI50 [11] of the same compound?
The GI50 was 52.1 µM (inactive).

And the GI50 [12]?
Its GI50 is 20.7 µM (inactive).

What about the GI50 [13] of the same compound?
Its GI50 is 14.1 µM (inactive).

What about the GI50 [14] of the same compound?
The GI50 was 29.1 µM (inactive).

What about the GI50 [15] of the same compound?
Its GI50 is 3.15 µM (inactive).

What about the GI50 [16] of the same compound?
The GI50 was 29.9 µM (inactive).

What about the GI50 [17] of the same compound?
The GI50 was 52.1 µM (inactive).

What about the GI50 [18] of the same compound?
Its GI50 is 0.199 µM (active).

What about the GI50 [19] of the same compound?
The GI50 was 19 µM (inactive).

What about the GI50 [20] of the same compound?
Its GI50 is 45.1 µM (inactive).

`CC(C)CNC(=O)CCc1cccc2c1oc1c(CCN)cccc12` was tested. Which GI50 [1] did it give?
Its GI50 is 4.35 µM (inactive).

And the GI50 [2]?
Its GI50 is 13.2 µM (inactive).

And the GI50 [3]?
The GI50 was 12.9 µM (inactive).

And the GI50 [4]?
The GI50 was 13.7 µM (inactive).

What about the GI50 [5] of the same compound?
Its GI50 is 18.5 µM (inactive).

And the GI50 [6]?
The GI50 was 12.4 µM (inactive).

What about the GI50 [7] of the same compound?
The GI50 was 16 µM (inactive).

And the GI50 [8]?
Its GI50 is 12 µM (inactive).

What about the GI50 [9] of the same compound?
The GI50 was 9.31 µM (inactive).

And the GI50 [10]?
Its GI50 is 18.5 µM (inactive).

What about the GI50 [11] of the same compound?
Its GI50 is 16.3 µM (inactive).

And the GI50 [12]?
The GI50 was 5.7 µM (inactive).

And the GI50 [13]?
Its GI50 is 16.9 µM (inactive).

And the GI50 [14]?
Its GI50 is 13.4 µM (inactive).

What about the GI50 [15] of the same compound?
The GI50 was 17.1 µM (inactive).

What about the GI50 [16] of the same compound?
Its GI50 is 12.8 µM (inactive).

What about the GI50 [17] of the same compound?
The GI50 was 15 µM (inactive).

And the GI50 [18]?
Its GI50 is 2.53 µM (inactive).

And the GI50 [19]?
The GI50 was 16.6 µM (inactive).

And the GI50 [20]?
The GI50 was 20.9 µM (inactive).

`Cc1nnc(N)nc1C/C=C/C(Sc1ccc(Cl)cc1)c1ccccc1` (stereo not given) was tested. Which GI50 [1] did it give?
The GI50 was 3.05 µM (inactive).

And the GI50 [2]?
The GI50 was 1.81 µM (inactive).

And the GI50 [3]?
Its GI50 is 5.7 µM (inactive).

And the GI50 [4]?
Its GI50 is 11.2 µM (inactive).

What about the GI50 [5] of the same compound?
Its GI50 is 2.82 µM (inactive).

What about the GI50 [6] of the same compound?
The GI50 was 3.27 µM (inactive).

What about the GI50 [7] of the same compound?
Its GI50 is 4.45 µM (inactive).

And the GI50 [8]?
The GI50 was 4.2 µM (inactive).

And the GI50 [9]?
Its GI50 is 7.01 µM (inactive).

And the GI50 [10]?
The GI50 was 5.66 µM (inactive).

What about the GI50 [11] of the same compound?
Its GI50 is 1.91 µM (inactive).

And the GI50 [12]?
Its GI50 is 5.68 µM (inactive).

And the GI50 [13]?
Its GI50 is 1.86 µM (inactive).

And the GI50 [14]?
Its GI50 is 3.01 µM (inactive).

What about the GI50 [15] of the same compound?
Its GI50 is 2.74 µM (inactive).

What about the GI50 [16] of the same compound?
The GI50 was 4.3 µM (inactive).

And the GI50 [17]?
Its GI50 is 6.76 µM (inactive).

And the GI50 [18]?
The GI50 was 2.87 µM (inactive).

And the GI50 [19]?
Its GI50 is 3.06 µM (inactive).

What about the GI50 [20] of the same compound?
The GI50 was 6.21 µM (inactive).

What does the source list for `Cc1nc2ccccc2n1Cc1ccc(NC(=S)Nc2ccccc2)cc1`?
GI50 [1]: > 100 µM (inactive); GI50 [2]: 21.9 µM (inactive); GI50 [3]: 77.4 µM (inactive); GI50 [4]: 18.6 µM (inactive); GI50 [5]: 80 µM (inactive); GI50 [6]: > 100 µM (inactive); GI50 [7]: 60 µM (inactive); GI50 [8]: 45 µM (inactive); GI50 [9]: 32.8 µM (inactive); GI50 [10]: 73.8 µM (inactive); GI50 [11]: 34.3 µM (inactive); GI50 [12]: 61.9 µM (inactive); GI50 [13]: 82.4 µM (inactive); GI50 [14]: 75.7 µM (inactive); GI50 [15]: 58.7 µM (inactive); GI50 [16]: 35.2 µM (inactive); GI50 [17]: 36.4 µM (inactive); GI50 [18]: 24.8 µM (inactive); GI50 [19]: 30.4 µM (inactive); GI50 [20]: 31 µM (inactive)
